In PubChem BioAssay (NCI):
Values joined by “and” are separate entries in the source; they are usually repeats but may differ in a detail not shown here. Identical values can stand only once.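 Protocol summary: plate cells (96-well), add compound at 5 concentrations, incubate 48 h, interpolate endpoints linearly. GI50 = concentration required for 50% inhibition of growth. TGI denotes the concentration required for complete inhibition of growth.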

Experiments:
Assay in all cases: NCI anticancer screen, dose series, 48 h
SNB-19 CNS = tested on: SNB-19 CNS
SF-295 CNS = tested on: SF-295 CNS
XF 498 CNS = tested on: XF 498 CNS
CAKI-1 renal = tested on: CAKI-1 renal
SF-539 CNS = tested on: SF-539 CNS
NCI-H460 lung = tested on: NCI-H460 lung
HOP-18 NSCLC = tested on: HOP-18 NSCLC
MOLT-4 leukemia = tested on: MOLT-4 leukemia
SK-OV-3 ovarian = tested on: SK-OV-3 ovarian
M19-MEL melanoma = tested on: M19-MEL melanoma
RPMI-8226 leukemia = tested on: RPMI-8226 leukemia

## CC(C)(C)c1cc(C(=O)O)c(C(c2ccccc2)c2ccccc2C(=O)O)c(C(=O)O)c1 (configuration not stated)
SNB-19 CNS
  TGI: > 100 µM
SF-295 CNS
  TGI: > 100 µM
XF 498 CNS
  TGI: > 100 µM
CAKI-1 renal
  TGI: > 100 µM
SF-539 CNS
  TGI: > 100 µM
NCI-H460 lung
  TGI: > 100 µM
HOP-18 NSCLC
  TGI: > 100 µM
MOLT-4 leukemia
  TGI: > 100 µM
SK-OV-3 ovarian
  TGI: 36.9 µM

## CCCCOP1(=O)C=CC(Cl)=C(C)C1 (configuration not stated)
SNB-19 CNS
  TGI: > 100 µM
M19-MEL melanoma
  TGI: > 100 µM
SF-295 CNS
  TGI: 39.6 µM
XF 498 CNS
  TGI: 43.2 µM
CAKI-1 renal
  TGI: > 100 µM
SF-539 CNS
  TGI: 36.3 µM
NCI-H460 lung
  TGI: 80.8 µM
HOP-18 NSCLC
  TGI: > 100 µM
RPMI-8226 leukemia
  TGI: 85.6 µM
MOLT-4 leukemia
  TGI: 25.3 µM

## O=C1Cc2ccccc2CCc2ccccc21
SNB-19 CNS
  TGI: > 100 µM
M19-MEL melanoma
  TGI: > 100 µM
SF-295 CNS
  TGI: > 100 µM
CAKI-1 renal
  TGI: > 100 µM
SF-539 CNS
  TGI: > 100 µM
NCI-H460 lung
  TGI: > 100 µM
HOP-18 NSCLC
  TGI: > 100 µM
RPMI-8226 leukemia
  TGI: > 100 µM
MOLT-4 leukemia
  TGI: > 100 µM
SK-OV-3 ovarian
  TGI: > 100 µM

## NC(=O)c1ncn(C2OC(CO)C(O)C2O)c1NC(=S)NC(=O)c1ccccc1 (configuration not stated)
SNB-19 CNS
  TGI: > 100 µM
M19-MEL melanoma
  TGI: > 100 µM
SF-295 CNS
  TGI: > 100 µM
CAKI-1 renal
  TGI: > 100 µM
SF-539 CNS
  TGI: > 100 µM
NCI-H460 lung
  TGI: > 100 µM
RPMI-8226 leukemia
  TGI: > 100 µM
MOLT-4 leukemia
  TGI: > 100 µM
SK-OV-3 ovarian
  TGI: > 100 µM

## O=c1ncccn1C1OC(CO)C(O)C1F (configuration not stated)
SNB-19 CNS
  TGI: > 100 µM
M19-MEL melanoma
  TGI: > 100 µM
SF-295 CNS
  TGI: > 100 µM
XF 498 CNS
  TGI: > 100 µM
CAKI-1 renal
  TGI: > 100 µM
SF-539 CNS
  GI50: > 100 µM
  TGI: > 100 µM
NCI-H460 lung
  GI50: > 100 µM
  TGI: > 100 µM
HOP-18 NSCLC
  TGI: > 100 µM
RPMI-8226 leukemia
  TGI: > 100 µM
MOLT-4 leukemia
  TGI: > 100 µM
SK-OV-3 ovarian
  TGI: > 100 µM

## CN1C(=O)CC2(C)c3cc(C=O)ccc3N(C)C12 (configuration not stated)
SNB-19 CNS
  TGI: > 100 µM
M19-MEL melanoma
  TGI: > 100 µM
SF-295 CNS
  TGI: > 100 µM
XF 498 CNS
  TGI: > 100 µM
SF-539 CNS
  TGI: > 100 µM
NCI-H460 lung
  TGI: > 100 µM
HOP-18 NSCLC
  TGI: > 100 µM
MOLT-4 leukemia
  TGI: > 100 µM
SK-OV-3 ovarian
  TGI: > 100 µM

## Cc1cc(N(CCC#N)CCC#N)ccc1/C=C/C(=O)Nc1ccccc1Cl
SNB-19 CNS
  TGI: > 100 µM
M19-MEL melanoma
  TGI: > 100 µM
SF-295 CNS
  TGI: > 100 µM
XF 498 CNS
  TGI: > 100 µM
CAKI-1 renal
  TGI: > 100 µM
SF-539 CNS
  TGI: > 100 µM
NCI-H460 lung
  TGI: > 100 µM
RPMI-8226 leukemia
  TGI: > 100 µM
MOLT-4 leukemia
  TGI: > 100 µM
SK-OV-3 ovarian
  TGI: > 100 µM

## CC1(C)Oc2ccccc2N2O[C@@H]3C(=O)N(c4ccccc4)C(=O)[C@@H]3C21c1ccccc1 (some centres not stated)
SNB-19 CNS
  TGI: 38.1 µM
M19-MEL melanoma
  TGI: 72.5 µM
SF-295 CNS
  TGI: 32.2 µM
CAKI-1 renal
  TGI: 60.8 µM
SF-539 CNS
  TGI: 31.7 µM
NCI-H460 lung
  TGI: > 100 µM
HOP-18 NSCLC
  TGI: 49.1 µM
RPMI-8226 leukemia
  TGI: > 100 µM
MOLT-4 leukemia
  TGI: > 100 µM
SK-OV-3 ovarian
  TGI: 41 µM

## Nc1nc(Cl)cc(NCCCCCCNc2cc(Cl)nc(N)n2)n1
SNB-19 CNS
  TGI: > 100 µM
M19-MEL melanoma
  TGI: > 100 µM
SF-295 CNS
  TGI: > 100 µM
XF 498 CNS
  TGI: 87 µM
CAKI-1 renal
  TGI: > 100 µM
SF-539 CNS
  TGI: > 100 µM
NCI-H460 lung
  TGI: > 100 µM
HOP-18 NSCLC
  TGI: > 100 µM
RPMI-8226 leukemia
  TGI: > 100 µM
MOLT-4 leukemia
  TGI: > 100 µM
SK-OV-3 ovarian
  TGI: > 100 µM

## CCC1(Cl)C(=O)NC(=O)N(C2CC(O)C(CO)O2)C1N=[N+]=[N-] (configuration not stated)
SNB-19 CNS
  TGI: > 100 µM
M19-MEL melanoma
  TGI: > 100 µM
SF-295 CNS
  TGI: > 100 µM
XF 498 CNS
  TGI: > 100 µM
CAKI-1 renal
  TGI: > 100 µM
SF-539 CNS
  TGI: > 100 µM
NCI-H460 lung
  TGI: > 100 µM
RPMI-8226 leukemia
  TGI: > 100 µM
MOLT-4 leukemia
  TGI: > 100 µM
SK-OV-3 ovarian
  TGI: > 100 µM

## C=CCN(N=O)C(=O)ON1C(=O)CCC1=O
SNB-19 CNS
  TGI: > 100 µM
M19-MEL melanoma
  TGI: > 100 µM
SF-295 CNS
  TGI: > 100 µM
SF-539 CNS
  TGI: > 100 µM
NCI-H460 lung
  TGI: > 100 µM
HOP-18 NSCLC
  TGI: > 100 µM
RPMI-8226 leukemia
  TGI: > 100 µM
MOLT-4 leukemia
  TGI: > 100 µM
SK-OV-3 ovarian
  TGI: > 100 µM

## Nc1ccc2c(SCC(=O)Nc3ccccc3-c3ccccc3NC(=O)CSc3c4ccccc4nc4cc(N)ccc34)c3ccccc3nc2c1
SNB-19 CNS
  TGI: 44.2 µM
M19-MEL melanoma
  TGI: 70.5 µM
SF-295 CNS
  TGI: 98 µM
XF 498 CNS
  TGI: 52.8 µM
CAKI-1 renal
  TGI: > 83.5 µM
SF-539 CNS
  TGI: 64.8 µM
NCI-H460 lung
  TGI: 97.8 µM
HOP-18 NSCLC
  TGI: 68.8 µM
RPMI-8226 leukemia
  TGI: 38.6 µM
MOLT-4 leukemia
  TGI: > 44.1 µM
SK-OV-3 ovarian
  TGI: > 100 µM

## COc1cc(-c2nn3c(=O)n(-c4ccc(Cl)cc4)c(=O)nc3s2)cc(OC)c1OC
SNB-19 CNS
  GI50: 37.4 µM
  TGI: 50 µM and 83.8 µM
M19-MEL melanoma
  GI50: > 50 µM
  TGI: > 100 µM
SF-295 CNS
  GI50: 18.2 µM
  TGI: > 50 µM and 90.2 µM
CAKI-1 renal
  GI50: > 50 µM
  TGI: > 62.2 µM
SF-539 CNS
  GI50: 32.9 µM
  TGI: 50 µM and 45.6 µM
NCI-H460 lung
  GI50: > 50 µM
  TGI: > 100 µM
HOP-18 NSCLC
  TGI: > 100 µM
RPMI-8226 leukemia
  GI50: > 100 µM
  TGI: > 100 µM
MOLT-4 leukemia
  GI50: 30.7 µM
  TGI: 50 µM and > 100 µM
SK-OV-3 ovarian
  GI50: 33.5 µM
  TGI: > 100 µM

## CC12O[Te]34OC1(C)C(C)(O3)C2(C)O4
SNB-19 CNS
  TGI: 37.5 µM
M19-MEL melanoma
  TGI: 25.5 µM
SF-295 CNS
  TGI: 18.3 µM
CAKI-1 renal
  TGI: 22.6 µM
SF-539 CNS
  TGI: 28.2 µM
NCI-H460 lung
  TGI: 61.3 µM
HOP-18 NSCLC
  TGI: 32 µM
MOLT-4 leukemia
  TGI: 34.6 µM
SK-OV-3 ovarian
  TGI: 36.3 µM

## O=C1c2c(O)ccc(O)c2C(=O)c2c(NCCNCCO)ccc(NCCNCCO)c21
SNB-19 CNS
  TGI: 0.546 µM and 2.08 µM and 0.79 µM
M19-MEL melanoma
  TGI: 0.925 µM
SF-295 CNS
  TGI: 0.321 µM and 0.878 µM and 0.526 µM
XF 498 CNS
  TGI: 0.0879 µM
CAKI-1 renal
  TGI: 1.07 µM and 0.18 µM
SF-539 CNS
  TGI: 0.0705 µM and 0.699 µM and 0.244 µM
NCI-H460 lung
  TGI: 0.274 µM and 0.332 µM and 0.484 µM
HOP-18 NSCLC
  TGI: 1.67 µM
RPMI-8226 leukemia
  TGI: 1.15 µM and 6.39 µM and 3.55 µM
MOLT-4 leukemia
  GI50: < 0.01 µM and < 0.005 µM and 0.00476 µM
  TGI: 0.235 µM and 0.339 µM
SK-OV-3 ovarian
  TGI: 0.228 µM and 0.563 µM and 0.431 µM

## OCCN(CCO)c1ncnc2c1sc(=S)n2-c1ccccc1
SNB-19 CNS
  TGI: > 100 µM
M19-MEL melanoma
  TGI: > 100 µM
SF-295 CNS
  TGI: > 100 µM
XF 498 CNS
  TGI: > 100 µM
CAKI-1 renal
  TGI: > 100 µM
SF-539 CNS
  TGI: > 100 µM
NCI-H460 lung
  TGI: > 100 µM
HOP-18 NSCLC
  TGI: > 100 µM
RPMI-8226 leukemia
  TGI: > 100 µM
MOLT-4 leukemia
  TGI: > 100 µM
SK-OV-3 ovarian
  TGI: > 100 µM
